Data as given in patent publication US6953786B2, “Compositions comprising plant-derived polyphenolic compounds and inhibitors of reactive oxygen species and methods of using thereof” (The Regents of the University of California, priority 2002, dated 2005).
Marks after values point to notes of the source that are not given here.

Experiments:
[1] = system: Mia PACA-2; test: Pancreatic cancer growth assay in nude mouse model; format: in vivo
Protocol: To determine the effect of a polyphenolic compound on pancreatic cancer cell growth, the following assay using a nude mouse model was conducted. Specifically, the effect of quercetin was tested in a nude mouse model of pancreatic cancer using the highly malignant pancreatic cancer cell line, Mia PACA-2.
Tumor induction in nude mice was performed as described by Hotz HC, et al. (2001) Pancreas 22:113-121, which is herein incorporated by reference. For subcutaneous tumor formation, 1×10^7 Mia PACA-2 tumor cells were subcutaneously injected in the medio-dorsal region of a nude mouse. After 4 weeks a small tumor fragment, about 1 mm in diameter, was removed from the subcutaneous tumor and transplanted into the pancreatic tail of mice of two study groups. Ten days after tumor transplantation, treatment with or without quercetin was initiated. The treated animals received daily intraperitoneal injections of 1.3 mg quercetin dissolved in DMSO; the control group received DMSO only by intraperitoneal injection. The animals were sacrificed once clinical tumor signs including severe cachexia ascites with abdominal distension or heavy tumor burden, larger than 1.5 cm, became apparent. Tumor volume was calculated as described by Hotz H C, et al. (2001) as 0.5×length×width×depth. Metastatic tumor spread was determined macroscopically at autopsy in all thoracic, abdominal, retroperitoneal and pelvic organs. All macroscopic suspicious lesions were further confirmed as tumor dissemination by microscopic analysis. Each value in the metastatic score represented a different organ of metastatic tumor spread.

[2] = system: cytochrome c; test: Mitochondrial cytochrome c release (Western blot); format: cell-based, rat; conditions: BSp73AS, 6 hours, 100 μM
Protocol: In order to determine the effects polyphenolic compounds have on mitochondrial cytochrome c release and apoptosis, the following assay was conducted. BSp73AS cells were cultured for 6 hours and Mia PACA-2 cells were cultured in the absence of serum or growth factors for 24 hours in the absence or presence of 100 μM of each rutin, trans-resveratrol, genistein, or quercetin. Cells were washed twice with ice-cold PBS, pH 7.2 and resuspended in extraction buffer, about 500 μl, comprising 20 mM HEPES-KOH (pH 7.0), 10 mM KCl, 1 mM […], 2 mM MgCl2, 1 mM EDTA, 1 mM DTT, 250 mM sucrose, 1 mM PMSF and protease inhibitors cocktail as provided above. The lysate was incubated for 30 minutes on ice and then homogenized using a glass dounce (80 strokes). Nuclei were removed by centrifugation at 1,000 g for 10 minutes at 4° C. Supernatant was additionally centrifuged for 1 hour at 100,000 g and the resulting supernatant (cytosolic fraction) and pellet (mitochondrial fraction) were collected separately, subjected to SDS-PAGE, and Western blotting using an antibody against cytochrome c. The experiment was repeated twice with similar results.

[3] = system: PARP; test: PARP proteolysis (Western blot); format: cell-based, human; conditions: Mia PACA-2, 24 hours, 100 μM
Protocol: BSp73AS cells were cultured for 6 hours and Mia PACA-2 cells were cultured for 24 hours in the presence or absence of 100 μM of each rutin, quercetin or trans-resveratrol and with or without 50 μM of each […]. The cells were washed twice with PBS and lysed by incubating for 20 minutes at 4° C. in lysis buffer comprising 0.15 M NaCl, 50 mM Tris (pH 7.2), 1% deoxycholic acid (wt/vol), 1% Triton X-100 (wt/vol), 0.1% […] (wt/vol) and 1 mM PMSF, as well as 5 μg/ml each of protease inhibitors, pepstatin, leupeptin, chymostatin, antipain, and aprotinin. Then the cell lysates were centrifuged for 20 minutes at 15,000 g at 4° C. The supernatants were separated by 4-20% SDS-PAGE for 2 hours at 120 V using precast Tris-glycine gels and a Mini-Cell gel apparatus (Novex, San Diego, Calif.). Separated proteins were electrophoretically transferred to a nitrocellulose membrane for 2 hours at 30 V using a Novex Blot Module (Novex, San Diego, Calif.). Nonspecific binding was blocked by 1 hour incubation of nitrocellulose membranes in 5% (wt/vol) nonfat dry milk in Tris-buffered saline (TBS; pH 7.5). Blots were then incubated overnight at 4° C. with rabbit polyclonal antibody against poly (ADP-ribose) polymerase (PARP) (Santa Cruz Biotechnology, Santa Cruz, Calif.) (1;3,000) in an antibody buffer comprising (1% (wt/vol) non-fat dry milk in TTBS (0.05% vol/vol) Tween-20 in TBS), washed 3 times with TTBS and finally incubated for 1 hour with a peroxidase-labeled secondary antibody in the antibody buffer. Blots were developed for visualization using ECL detection kit. To test for equal protein loading, the blots were stripped and re-probed with an antibody against tubulin. When processing of a protein was measured, a decrease in unprocessed full-length form was measured concomitantly with the increase in the cleaved, active form. The experiment was repeated 3 times with similar results.

[4] = system: NF-κB; test: NF-κB DNA binding activity (EMSA); format: cell-based, rat; conditions: BSp73AS, 6 hours; polyphenols 100 μM, MG-132 20 μM
Protocol: In order to determine the role of activated NF-κB in the regulation of apoptosis caused by the polyphenolic compound, the following assay was conducted. BSp73AS cells were cultured for 6 hours and Mia PACA-2 cells were cultured in the absence of serum or growth factors for 24 hours in the absence (controls) or presence of rutin, quercetin, trans-resveratrol, or genistein, each at 100 μM and 20 μM proteosome inhibitor MG-132. Nuclear proteins were isolated and analyzed for NF-κB DNA binding activity with electrophoretic mobility shift assay (EMSA). Specifically, aliquots of nuclear extracts with equal amount of protein, about 2 to about 10 μg, were mixed in 20 μl reactions with a buffer comprising 10 mM HEPES (pH 7.6), 50 mM KCl, 0.1 mM EDTA, 1 mM DTT, 10% (vol/vol) glycerol and 3 μg poly[d (I-C)]. After aliquots were equilibrated on ice for 5 minutes, binding reactions were stared by addition of 20-60,000 counts/min (20 fM) of ^32P-labeled DNA probes and allowed to proceed for 25-30 minutes at room temperature or up to 1 hour on ice. The oligonucleotide probe containing the κB binding motif (underlined) was annealed to the complementary oligonucleotide with a 5′-G overhang and end-labeled using Klenow DNA polymerase I. The samples were electrophoresed at room temperature in 0.5×TBE buffer (1×TBE 89 mM Tris base, 89 mM boric acid and 2 mM EDTA) on nondenaturing 4.5% polyacrylamide gel at 200 V. Gels were dried and directly analyzed in the PhosphorImager (Molecular Dynamics, Sunnyvale, Calif.). The experiment was repeated twice.

[5] = nude mice with Mia PACA-2 tumor in pancreatic tail, daily i.p. 1.3 mg quercetin, means ± SE, n=8

SMILES	growth of pancreatic cancer in a nude mouse model [1]	cytosolic and mitochondrial cytochrome c [2]	Number of metastatic sites (organs with metastatic lesions) [1, 5]	Tumor volume, cm^3 [1, 5]	Number of metastatic sites (organs with metastatic lesions) ([1]; nude mice with Mia PACA-2 tumor in pancreatic tail, daily i.p. 1.3 mg quercetin, means ± SE, n=8, listed as Quercetin)	Survival ([1]; nude mice with Mia PACA-2 tumor transplanted into pancreatic tail, daily intraperitoneal 1.3 mg quercetin in DMSO, means ± SE, n=8, days after transplantation until animal appeared ill from abdominal distension) [days]	PARP cleavage [3]	NF-κB activation (DNA binding) [4]
O=c1c(-c2ccc(O)cc2)coc2cc(O)cc(O)c12 [genistein]	inhibition of growth	caused increases in cytosolic cytochrome c and decreases in mitochondrial cytochrome c	–	–	–	–	–	–
O=c1c(O)c(-c2ccc(O)c(O)c2)oc2cc(O)cc(O)c12 [quercetin]	inhibition of growth	caused increases in cytosolic cytochrome c and decreases in mitochondrial cytochrome c	0.6	1.56 ± 0.27* cm^3	0.62 ± 0.26	75.00 ± 2.50	cleaved to its activated form	inhibit NF-κB activation
Oc1ccc(/C=C/c2cc(O)cc(O)c2)cc1 [trans-resveratrol]	–	caused increases in cytosolic cytochrome c and decreases in mitochondrial cytochrome c	–	–	–	–	cleaved to its activated form	inhibit NF-κB activation
